Experimental data from patent US10640468B2, “1-(4-(2-((1-(3,4-difluorophenyl)-1H-pyrazol-3-Yl)methoxy)ethyl)piperazin-1- Yl)ethanone salts” (ESTEVE PHARMACEUTICALS S.A., priority 2015, dated 2020).
Where “and” joins values, the source holds several entries; their conditions need not be identical. Identical values can stand only once. Counter-ions that a name gives are not always drawn. Like-named read-outs stand apart in the source and are kept apart here.

Tests used:
[1] = Pharmacokinetics after single oral administration to male Wistar rat; type: in vivo
Protocol: The pharmacokinetics of Example 1 and 2 were tested using the following protocol:
Male Wistar rats weighing 250 to 300 g (±20) supplied by Harlan were used. Water and food was available ad libitum throughout the study.
Administration and Sample Collection
Two rats (R1 and R2) were used in the pharmacokinetic oral studies.
A single dose of tested compound was administered by oral gavage [10 mg/kg as free base (Example 0)] in 0.5% hydroxypropyl methylcellulose (1 mg/ml). From each rat, serial blood samples were collected at 15 and 30 min, 1, 2, 3, 5, 7 and 24 h.
Blood was collected from the saphenous veins into heparinized tubes. Plasma was obtained by blood centrifugation at 4° C. and 2280×g for 10 min and kept at −80° C. until analysis.
Tested compound concentration in plasma samples was determined by least-squares linear regression using a ten-point calibration curve. The calibration curve was prepared in blank plasma from a working solution of 1 mg/ml in DMSO.
Samples were thawed at room temperature on the day of analysis. After plasma protein precipitation of samples and calibration standards with acetonitrile (1:4.3; v/v), the mixture was vortexed and centrifuged (4° C. and 16090×g for 10 min).
Tested compound plasma concentrations were determined by high performance liquid chromatography-triple quadrupole mass spectrometry (HPLC-MS/MS) through the following method:
Column: Atlantis® T3 column (2.1×100 mm, 3 μm) (Waters).
Mobile phase: A: 0.0155% Formic water • B: 0.0155% Formic Acetonitrile
Autosampler wash: Solvent 1:Acetonitrile • Solvent 2: 5% Acetonitrile+95% Water
Standard pharmacokinetic parameters, such as area under the curve (AUC), peak plasma concentration (Cmax), time to peak concentration (tmax), oral bioavailability (F), total plasma clearance (Cl), volume of distribution at steady-state (Vss), mean residence time (MRT) and terminal half-life (t1/2), were determined by non-compartmental analysis of the plasma concentration-time curves (Phoenix v. 6.2.1.51, Pharsight, C A).

[2] = Thermodynamic solubility at pH 7.4; type: physicochemical; conditions: for solubility thermodynamic at 24 h: phosphate buffer, 25 °C, pH 7.4, aqueous buffer, thermodynamic from solid
Protocol: General protocol for thermodynamic solubility at pH 7.4 and pH 2 are described. • A) Thermodynamic Solubility at pH 7.4
Phosphate buffer at pH 7.4 (25 mM) was prepared as follows:
A solution 25 mM of Na2HPO4.12H2O (for 1 L of water, weight 8.96 g) was prepared
A solution 25 mM de KH2PO4 (for 1 L of water weight 3.4 g) was prepared.
Disodium phosphate solution (812 mL) and potassium phosphate (182 mL) solution were mixed and pH checked to be 7.4.
Equipment • Precision analytical balance Mettler Toledo AT20. • Analytical balance Mettler Toledo PJ300. • Liquid chromatograph Waters Alliance 2695. • Stirrer Thermomixer Control of Eppendorf a 25° C. y 1250 rpm • pHmeter with combined semi-micro electrode.
Around 4 mg of compound in an HPLC vial (by duplicate) was dissolved in 1 mL of buffer solution. After stirring in Thermomixer Comfort system for 24 hours at 25° C., in order to achieve thermodynamic equilibrium, solution was centrifuged at 3000 rpm for 15 minutes.
The resulting upper layer was collected with a glass pipette and transferred to the HPLC vials in order to inject them (10 μL) directly to the HPLC instrument.
Standards were made in methanol to ensure overall compound solubility. Preparation of standard calibrators is illustrated below:
Sol.A: 4 mg in 1 mL methanol (4000 μg/mL)
Sol.B: 0.5 mL Sol.A to 5 mL with methanol (400 μg/mL)
Sol.C: 1 mL Sol.B to 10 mL with methanol (40 μg/mL)
Sol.D: 5 mL […] to 50 mL with methanol (4 μg/mL)
Sol.E: 4 mL Sol.D to 10 mL with methanol (1.6 μg/mL)
Calibration curve was created through 10 μL injection of standards, beginning with the more diluted standard. Blanks were also injected, for checking the absence of contamination.
10 μl of test substance were injected, by duplicate, and the average peak area interpolated in the calibration curve (see Tables Examples below).
Chromatographic Conditions • Column: XBridge C18 (or similar) 2.5 μm 4.6×50 mm • Temperature: 35° C. • Mobile phase: ACN/ammonium bicarbonate 10 mM. • Gradient: 0-3.5 min: from 15% CAN to 95% CAN • 3.5-5 min: 95% ACN • 5-6 min: 95 a 15% ACN • 6-8 min: 15% ACN • Flow: 1.5 mL/min • Detection: around the maximum UV wavelength. • B) Thermodynamic Solubility at pH 2

[3] = mean of 2 rats, 10 mg/kg oral, hydrochloride, 10 mg/kg

CC(=O)N1CCN(CCOCc2ccn(-c3ccc(F)c(F)c3)n2)CC1 [Example 1, hydrochloride]
F ([1]; animal 1, 10 mg/kg oral, mean AUC after i.v. administration used for calculation, hydrochloride): 66% | F ([1]; animal 2, 10 mg/kg oral, mean AUC after i.v. administration used for calculation, hydrochloride): 53% | Vd ([1]; male, Wistar, plasma, rat, total body water volume 0.6 l/kg, read-out: volume of distribution): 1.2 L/kg | bioavailability ([1]; male, Wistar, rat, plasma, oral, 10 mg/kg, mean of 2 rats, 10 mg/kg oral, mean AUC after i.v. administration used for calculation, read-out: F (oral bioavailability)): 60% | AUC ([1]; male, Wistar, rat, plasma, po, 10 mg/kg, animal 1, 10 mg/kg oral, read-out: AUC): 2950 ng·h/mL | Cmax ([1]; male, Wistar, rat, plasma, po, 10 mg/kg, animal 1, 10 mg/kg oral, read-out: Cmax): 1.31 µg/mL | half-life ([1]; male, Wistar, rat, plasma, po, 10 mg/kg, animal 1, 10 mg/kg oral, read-out: t1/2 (converted)): 54 min | tmax ([1]; male, Wistar, rat, plasma, po, 10 mg/kg, animal 1, 10 mg/kg oral, read-out: tmax): 15 min | AUC ([1]; male, Wistar, rat, plasma, po, 10 mg/kg, animal 2, 10 mg/kg oral, read-out: AUC): 2340 ng·h/mL | Cmax ([1]; male, Wistar, rat, plasma, po, 10 mg/kg, animal 2, 10 mg/kg oral, read-out: Cmax): 1.05 µg/mL | half-life ([1]; male, Wistar, rat, plasma, po, 10 mg/kg, animal 2, 10 mg/kg oral, read-out: t1/2 (converted)): 54 min | tmax ([1]; male, Wistar, rat, plasma, po, 10 mg/kg, animal 2, 10 mg/kg oral, read-out: tmax): 60 min | AUC ([1]; male, Wistar, rat, plasma, po, 10 mg/kg, mean of 2 rats, 10 mg/kg oral, read-out: AUC): ~2600 ng·h/mL | Cmax ([1]; male, Wistar, rat, plasma, po, 10 mg/kg, mean of 2 rats, 10 mg/kg oral, read-out: Cmax (peak plasma concentration)): ~1 µg/mL | half-life ([1]; male, Wistar, rat, plasma, po, 10 mg/kg, mean of 2 rats, 10 mg/kg oral, read-out: t1/2 (terminal half-life)): < 60 min | tmax ([1]; male, Wistar, rat, plasma, po, 10 mg/kg, mean of 2 rats, 10 mg/kg oral, read-out: tmax): 36 min | concentration at 0.5 h ([1]; male, Wistar, rat, plasma, po, 10 mg/kg, rat R1, 0.5 h, 10 mg/kg oral): 1.3 µg/mL | concentration at 1 h ([1]; male, Wistar, rat, plasma, po, 10 mg/kg, rat R1, 1 h, 10 mg/kg oral): 1.07 µg/mL | concentration at 5 h ([1]; male, Wistar, rat, plasma, po, 10 mg/kg, rat R1, 5 h, 10 mg/kg oral): 0.0496 µg/mL | concentration at 0.5 h ([1]; male, Wistar, rat, plasma, po, 10 mg/kg, rat R2, 0.5 h, 10 mg/kg oral): 0.742 µg/mL | concentration at 1 h ([1]; male, Wistar, rat, plasma, po, 10 mg/kg, rat R2, 1 h, 10 mg/kg oral): 1.05 µg/mL | concentration at 5 h ([1]; male, Wistar, rat, plasma, po, 10 mg/kg, rat R2, 5 h, 10 mg/kg oral): 0.0469 µg/mL | concentration at 7 h ([1]; male, Wistar, rat, plasma, po, 10 mg/kg, rat R2, 7 h, 10 mg/kg oral): 0.0115 µg/mL | AUC [1, 3]: 2645 ng·h/mL | t1/2 (terminal half-life) [1, 3]: 54 min | tmax [1, 3]: 37.8 min | plasma clearance ([1]; rat): 70 % liver blood flow | Plasma concentration ([1]; rat R1, 2 h, 10 mg/kg oral, hydrochloride, 10 mg/kg): 0.7228 µg/mL | Plasma concentration ([1]; rat R1, 3 h, 10 mg/kg oral, hydrochloride, 10 mg/kg): 0.3231 µg/mL | Plasma concentration ([1]; rat R1, 7 h, 10 mg/kg oral, hydrochloride, 10 mg/kg): 0.0128 µg/mL | Plasma concentration ([1]; rat R1, 24 h, 10 mg/kg oral, LLOQ 2 ng/ml): <lloq | Plasma concentration ([1]; rat R2, 2 h, 10 mg/kg oral, hydrochloride, 10 mg/kg): 0.6739 µg/mL | Plasma concentration ([1]; rat R2, 3 h, 10 mg/kg oral, hydrochloride, 10 mg/kg): 0.2331 µg/mL | Plasma concentration ([1]; rat R2, 24 h, 10 mg/kg oral, LLOQ 2 ng/ml): <lloq | Conc. ([2]; pH 7.4, single HPLC injections of duplicate vials, hydrochloride): 3928 µg/mL and 3817.1 µg/mL and 4301.5 µg/mL and 4345.3 µg/mL | solubility thermodynamic at 24 h ([2]; pH 7.4, mean of 4 injections, read-out: Conc. Mean): 4100 µg/mL | solubility thermodynamic at 24 h ([2]; pH=7.4, 24 hours at 25° C., completely dissolved, read-out: thermodynamic solubility): > 4000 µg/mL
